# Laboratory results published in ChEMBL document CHEMBL5725243, “Cyclopentylbenzamide derivatives and their use for the treatment of psychotic and cognitive disorders” (2016).
# Columns and labels:
# Orexin receptor type 2 = biological target: T1, Orexin receptor type 2 (Homo sapiens, UniProt O43614); experiment: (§1) Fluorescent Imaging Plate Reader (FLIPR) Assay: Orexin antagonist activity was determined by measuring changes in intracellular calcium levels using a Ca2+ sensitive fluorescent dye. The changes in fluorescent signal were monitored by Fluorescent Imaging Plate Reader (FLIPR) technology available from Molecular Devices, LLC, U.S.A. Orexin mediated increases in intracellular Ca2+ concentration were readily detected upon activation with orexin-A. Twenty-four hours prior to the assay, RBL-2H3 cells stably expressing either human orexin receptor 1 or human orexin receptor 2 were seeded in cell culture medium in black, clear-bottom 384-well plates (commercially available from Corning Inc., U.S.A.) and grown overnight at 37° C., 5% CO2. On the day of the assay, cell culture media was removed and cells were loaded with Calcium 5 Dye (commercially sold by Molecular Devices, LLC, U.S.A.) for 1 hour at 37° C., 5% CO2. Test compounds (at 10 point half log concentration response curves from 10 uM) were added to cells for 15 minutes prior to the addition of orexin-A to all wells, to achieve a final concentration that produces approximately an 80% maximal response. The IC50 values were determined from ten point concentration response curves. Curves were generated using the average of two wells for each data point.; assay type: cell-based
# T1 sequence (O43614 whole entry): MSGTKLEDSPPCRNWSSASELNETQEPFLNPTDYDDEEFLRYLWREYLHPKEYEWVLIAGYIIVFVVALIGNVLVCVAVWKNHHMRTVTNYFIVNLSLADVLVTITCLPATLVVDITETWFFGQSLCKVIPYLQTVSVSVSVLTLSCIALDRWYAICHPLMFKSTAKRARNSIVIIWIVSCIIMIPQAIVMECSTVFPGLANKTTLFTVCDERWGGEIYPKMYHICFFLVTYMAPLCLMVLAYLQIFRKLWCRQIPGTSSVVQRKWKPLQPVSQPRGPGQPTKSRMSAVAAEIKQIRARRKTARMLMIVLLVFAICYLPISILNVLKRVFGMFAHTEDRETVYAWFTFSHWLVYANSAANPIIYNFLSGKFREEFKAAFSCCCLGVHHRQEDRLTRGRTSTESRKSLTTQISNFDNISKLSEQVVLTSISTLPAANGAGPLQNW
# [1] = biological target: T2, Orexin/Hypocretin receptor type 1 (Homo sapiens, UniProt O43613); experiment: as §1; assay type: cell-based
# T2 sequence (O43613 whole entry): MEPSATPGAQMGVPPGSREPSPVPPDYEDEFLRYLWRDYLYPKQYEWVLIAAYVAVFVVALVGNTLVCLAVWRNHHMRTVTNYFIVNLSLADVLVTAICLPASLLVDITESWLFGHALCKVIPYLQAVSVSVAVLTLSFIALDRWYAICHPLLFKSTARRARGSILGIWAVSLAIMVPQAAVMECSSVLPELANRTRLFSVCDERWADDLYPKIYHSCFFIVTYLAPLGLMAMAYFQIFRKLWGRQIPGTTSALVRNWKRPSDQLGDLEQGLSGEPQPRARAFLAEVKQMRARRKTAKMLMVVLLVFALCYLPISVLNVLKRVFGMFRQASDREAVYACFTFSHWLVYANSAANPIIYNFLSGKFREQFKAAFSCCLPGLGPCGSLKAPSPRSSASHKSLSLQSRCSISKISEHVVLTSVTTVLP
IC50 (Orexin receptor type 2) [nM],IC50 [1] [nM],Compound
1200,130,CCOc1cccc(OCC)c1C(=O)N[C@@H]1CCC[C@@H]1Nc1nc2ccccc2o1
> 10000,24,Cc1ccc(-n2nccn2)c(C(=O)N[C@H]2CCC[C@@H]2Nc2ncc3ccccc3n2)c1
1400,220,COc1cccc(OC)c1C(=O)N[C@@H]1COC[C@@H]1Nc1nc2ccc(Cl)cc2s1 (relative stereo)
